In publication PMC12767106, “In Situ Assembly of Transformable Monopeptide on Activated Neutrophils Attenuates NETs‐Induced Hepatocellular Carcinoma Metastasis by Disrupting NE Nuclear Translocation” (Advanced Science, 2025):

System: Hepa1-6/luc liver and lung metastasis
Experiment: Liver and lung metastasis model
Assay type: in vivo, mouse
Details: Hepa1-6/luc cells via spleen or tail vein, 300 µM in 200 µL i.v. every two days, 16 days, n = 5
Excerpt: Submitted to Advanced Science
effector T cells (CD45+CD3+CD8+)/(CD45+CD3+CD4+), tumor cells were stained with anti-CD45-FITC
(Biolegend), anti-CD3ε-PerCP-Cy5.5 (Biolegend), anti-CD4-APC (Biolegend), and anti-CD8a-PE (Biolegend)
antibodies according to the standard protocol. For evaluation of NK cells (CD45+CD3-NK1.1+), tumor cells
were stained with anti-CD45-FITC (Biolegend), anti-CD3-PE (Biolegend) and anti-CD49b-APC (Biolegend)
antibodies and examined using flow cytometry. For MDSCs (CD45+CD11b+Gr-1+) analysis, tumor cells were
stained with anti-CD45-FITC, anti-CD11b-BrilliantViolet-510 (Biolegend), anti -F4/80-PE (Biolegend), and
anti-Gr-1-APC (Biolegend) antibodies for flow cytometry examination (BD FACS Canto SORP, USA). The
software FlowJo V10.6.2 was used for data analysis. To further explore the immunomodulatory effects of FTP-
NPs. Tumor tissues were harvested for immune profiling. Plasma cytokine levels, including IL-6, IL-10, and
TNF-α, were measured using commercially available ELISA kits to assess the immune activation induced by
Experimental liver and lung metastasis model
Six-week-old male C57BL/6J mice (20–25 g) were used to establish liver and lung metastasis models. Hepa1-
6/luc cells (1 × 10^6 cells) were injected into the spleen or tail vein of the mice to induce liver or lung
metastasis, respectively. For the liver metastasis model, Hepa1-6/luc cells were injected into the spleen, allowing
tumor cells to circulate and establish metastases in the liver. For the lung metastasis model, Hepa1-6/luc cells
were injected via the tail vein, leading to the formation of metastases in the lungs. Following cell implantation, […]
euthanized, and metastases were assessed macroscopically. […]
injecting D-Luciferin (150 mg/kg) intraperitoneally, and tumor burden was quantified using the IVIS Spectrum […]
conducted, and metastatic lesions were assessed under an inverted microscope (Axiovert 200, Zeiss, Germany). […]
300 μM per injection) for mice. […] (b) Fluorescence quantized chart […]
experiments. Statistical significance was calculated by one-way ANOVA, *p < 0.050.(c, d) Photographs of lung […]

CC(C)(C)C(=O)Oc1ccc(S(=O)(=O)Nc2ccccc2C(=O)NCC(=O)O)cc1 [NEi, Sivelestat, reference compound]
liver and lung metastasis (bioluminescent signals, number of metastatic foci): obvious metastases
